With COc1cc2c(Nc3ccc(Cl)cc3F)ccnc2cc1OCCN(C)C.Cl the melting point was > 250 °C.
In the case of COc1cc2nccc(Nc3cc(O)c(C)cc3F)c2cc1OC.Cl, the melting point is reported as > 280 °C.

First: COc1cc2nccc(Oc3cccc(O)c3)c2cc1OC [Example 26, 6,7-dimethoxy-4-(3-hydroxyphenoxy)quinoline]
Second: COc1cc2nccc(Nc3cccc(O)c3)c2cc1OC.Cl
The melting point of the first is lower: 140 °C for the first, 280 to 283 °C for the second.

First: COc1cc2c(Nc3ccc(C)c(OC(C)=O)c3)ccnc2cc1OCc1ccccc1.Cl
Second: COc1cc2c(Nc3ccc(Cl)cc3F)ccnc2cc1OCc1ccccc1.Cl
The melting point of the first is higher: 230 to 232 °C for the first, 222 to 225 °C for the second.

First: COc1cc2nccc(Nc3cc(O)c(C)cc3F)c2cc1C#N.Cl
Second: COCCOc1cc2nccc(Nc3cc(O)c(C)cc3F)c2cc1C#N.Cl
The melting point of the first is lower: 278 to 281 °C for the first, 300 to 302 °C for the second.

Compared with COCCOc1cc2nccc(Nc3ccc(C)c(O)c3)c2cc1C#N.Cl, COCCOc1cc2nccc(Nc3ccc(Cl)cc3F)c2cc1C#N.Cl is lower in melting point: 275 to 278 °C for the first, 247 to 250 °C for the second.

Compared with COCCOc1cc2nccc(Oc3cccc(O)c3)c2cc1C#N [Example 50, 6-cyano-4-(3-hydroxyphenoxy)-7-(2-methoxyethoxy)quinoline], COc1cc2c(Oc3cc(O)c(C)cc3F)ccnc2cc1OCCCN1CCOCC1 [Example 3, 4-(2-fluoro-5-hydroxy-4-methylphenoxy)-6-methoxy-7-(3-morpholinopropoxy)quinoline] is higher in melting point: 159 to 163 °C for the first, 210 to 217 °C for the second.

In the case of COc1cc2nccc(Nc3cc(O)c(Cl)cc3F)c2cc1OC.Cl, the melting point is reported as 312 to 318 °C.
